Source: patent US4575560A, “Insecticidal diaminoguanidine hydrazone compounds” (American Cyanamid Company, priority 1985, dated 1986)
In brackets after ≈: the same amount, converted by molar mass. Read-outs that look alike come from different tables or passages of the source.

Key:
[1] = system: Southern Armyworm; experiment: Southern armyworm test, third-instar larvae on treated Sieva lima bean leaves; format: in vivo, Spodoptera eridania (Cramer)
Experimental: Test formulations and procedures used for evaluation are as follows:
A. 100 mg of the test material is weighed, placed in a funnel over a 113 g narrow-mouth bottle, rinsed into the bottle with a 35 mL scoop of acetone, followed by a 35 mL scoop of water and another 35 mL scoop of acetone to yield 1000 ppm in 65% acetone. If the material is not soluble, it is broken up with a glass rod and used as a suspension.
B. This stock solution ("A") is used to make 300 ppm solutions or suspensions by pipetting 30 mL of "A" into a bottle containing 70 mL of 50% acetone to yield 300 ppm. Further dilutions in 50% acetone are made as required.
C. Tests requiring 10 ppm acetone solutions: 1 mL of "A" is pipetted into 99 mL of acetone to yield 10 ppm. Additional dilutions are made using 50% acetone as required.
Southern Armyworm--Spodoptera eridania (Cramer)
A Sieva lima bean plant with just the primary leaves expanded to 1.91 cm is dipped for three seconds with agitation in the "A" solution of 1000 ppm and set in the hood to dry. Following this, one leaf is placed in a 9 cm petri dish which has a moist filter paper in the bottom and 10 third-instar armyworm larvae about 1 cm long. This dish is covered and held at 80° F., and 50% r.h. After two days, mortality counts and estimates of the amount of feeding are made. Compounds showing partial kill and/or inhibition of feeding are held for an extra day for further observations.
All compounds showing activity as defined above are retested, using the second leaf on the bean plant, after an interval of seven days from original treatment, as an assay of residual activity.

[2] = system: Tobacco Budworm 3rd Instar; experiment: Tobacco budworm secondary test, third-instar larvae on treated cotton cotyledons; format: in vivo, Heliothis virescens (Fabricus)

Row | Structure (SMILES) | Mortality Rating Southern Armyworm ([1]; 10 ppm, third-instar larvae) | Mortality Rating Southern Armyworm ([1]; 100 ppm, third-instar larvae) | Mortality Rating Southern Armyworm ([1]; 1000 ppm, third-instar larvae) | Mortality Rating Tobacco Budworm 3rd Instar ([2]; 1000 ppm) | reduced feeding (R) Tobacco Budworm 3rd Instar ([2]; 1000 ppm) | Mortality Rating Tobacco Budworm 3rd Instar ([2]; 100 ppm) | Mortality Rating Tobacco Budworm 3rd Instar ([2]; 10 ppm) | LC50 ([1]; Spodoptera eridania; read-out: LC50 Southern Armyworm) | LC50 ([1]; Spodoptera eridania, read-out: LC50 Southern Armyworm) | reduced feeding (R) Tobacco Budworm 3rd Instar ([2]; 100 ppm) | reduced feeding (R) Tobacco Budworm 3rd Instar ([2]; 10 ppm)
1 | N=C(NN=Cc1ccc(OC(F)(F)C(Cl)Cl)cc1)NN=Cc1ccc(OC(F)(F)C(Cl)Cl)cc1 [HCCl2 CF2 O / B] | 0 (No effect) | 0 (No effect) | 9 (100%) | 4 (46-55%) | R | – | – | – | – | – | –
2 | N=C(NN=Cc1ccc(OC(F)(F)C(F)F)cc1)N(N=Cc1ccc(OC(F)(F)C(F)F)cc1)C(=O)N1CCCC1 [HCF2 CF2 O / HCF2 CF2 O / (CH2)4] | – | 9 (100%) | 9 (100%) | 3 (36-45%) | – | 0 (No effect) | – | – | – | – | –
3 | CC(C)OC(=O)N(N=Cc1ccc(OC(F)(F)C(F)F)cc1)C(=N)NN=Cc1ccc(OC(F)(F)C(F)F)cc1 [HCF2 CF2 O / HCF2 CF2 O / -i-C3 H7] | 0 (No effect) | 9 (100%) | 9 (100%) | 5 (56-65%) | – | 0 (No effect) | – | – | – | – | –
4 | CCN(CC)C(=O)N(N=Cc1ccc(OC(F)(F)C(F)F)cc1)C(=N)NN=Cc1ccc(OC(F)(F)C(F)F)cc1 [HCF2 CF2 O / HCF2 CF2 O / C2 H5 / C2 H5] | 1 (11-25%) | 9 (100%) | 9 (100%) | 5 (56-65%) | – | 0 (No effect) | 0 (No effect) | – | – | – | –
5 | CCNC(=O)N(N=Cc1ccc(OC(F)(F)C(F)F)cc1)C(=N)NN=Cc1ccc(OC(F)(F)C(F)F)cc1 [HCF2 CF2 O / HCF2 CF2 O / C2 H5 / H] | 0 (No effect) | 9 (100%) | 9 (100%) | 4 (46-55%) | – | – | – | 34 µg/mL (≈ 59.8 µM) | – | – | –
6 | CNC(=O)N(N=Cc1ccc(OC(F)(F)C(F)F)cc1)C(=N)NN=Cc1ccc(OC(F)(F)C(F)F)cc1 [HCF2 CF2 O / HCF2 CF2 O / CH3 / H] | 0 (No effect) | 9 (100%) | 9 (100%) | 4 (46-55%) | – | – | – | – | – | – | –
7 | N=C(NN=Cc1ccc(OC(F)(F)C(F)F)cc1)N(N=Cc1ccc(OC(F)(F)C(F)F)cc1)C(=O)NCCCl [HCF2 CF2 O / HCF2 CF2 O / ClCH2 CH2 / H] | 0 (No effect) | 8 (86-99%) | 9 (100%) | 6 (66-75%) | – | 0 (No effect) | 0 (No effect) | – | 21 µg/mL (≈ 34.8 µM) | – | –
8 | N=C(NN=Cc1ccc(SC(F)(F)C(F)F)cc1)NN=Cc1ccc(SC(F)(F)C(F)F)cc1 [HCF2 CF2 S / B] | – | 9 (100%) | 9 (100%) | 0 (No effect) | R | – | – | – | – | – | –
9 | CC(C)OC(=O)N(N=Cc1ccc(SC(F)(F)C(F)F)cc1)C(=N)NN=Cc1ccc(SC(F)(F)C(F)F)cc1 [HCF2 CF2 S / HCF2 CF2 S / -i-C3 H7] | – | 9 (100%) | 9 (100%) | 5 (56-65%) | R | 0 (No effect) | – | – | – | – | –
10 | CN(C)C(=O)N(N=Cc1ccc(SC(F)(F)C(F)F)cc1)C(=N)NN=Cc1ccc(SC(F)(F)C(F)F)cc1 [HCF2 CF2 S / HCF2 CF2 S / CH3 / CH3] | 3 (36-45%) | 9 (100%) | 9 (100%) | 6 (66-75%) | – | 6 (66-75%) | 0 (No effect) | – | – | – | –
11 | CCOC(=O)N(N=Cc1ccc(OC(F)F)cc1)C(=N)NN=Cc1ccc(OC(F)F)cc1 [HCF2 O / HCF2 O / C2 H5] | 0 (No effect) | 9 (100%) | 9 (100%) | 2 (26-35%) | – | – | – | – | – | – | –
12 | N=C(NN=Cc1ccc(SC(F)F)cc1)NN=Cc1ccc(SC(F)F)cc1 [HCF2 S / B] | – | 9 (100%) | 8 (86-99%) | 0 (No effect) | R | 0 (No effect) | 0 (No effect) | – | – | R | –
13 | CCCOC(=O)N(N=Cc1ccc(SC(F)F)cc1)C(=N)NN=Cc1ccc(OC(F)F)cc1 [HCF2 S / HCF2 O / -n-C3 H7] | – | 0 (No effect) | 9 (100%) | 0 (No effect) | – | – | – | – | – | – | –
14 | CN(C)C(=O)N(N=Cc1ccc(SC(F)F)cc1)C(=N)NN=Cc1ccc(SC(F)F)cc1 [HCF2 S / HCF2 S / CH3 / CH3] | 0 (No effect) | 9 (100%) | 9 (100%) | 0 (No effect) | – | – | – | – | – | – | –
15 | N=C(NN=Cc1ccc(SC(F)F)cc1)N(N=Cc1ccc(SC(F)F)cc1)C(=O)OCCCl [HCF2 S / HCF2 S / ClCH2 CH2] | – | 0 (No effect) | 9 (100%) | 0 (No effect) | R | – | – | – | – | – | –
16 | CCOC(=O)N(N=Cc1ccc(SC(F)F)cc1)C(=N)NN=Cc1ccc(SC(F)F)cc1 [HCF2 S / HCF2 s / C2 H5] | – | 0 (No effect) | 9 (100%) | 0 (No effect) | R | – | – | – | – | – | –
17 | N=C(NN=Cc1ccc(SC(F)F)cc1)NN=Cc1ccc(SC(F)F)cc1 [HCF2 S / S] | – | 9 (100%) | 9 (100%) | 0 (No effect) | R | – | – | – | – | – | –
18 | N=C(NN=Cc1ccc(OC(F)(F)C(F)Cl)cc1)NN=Cc1ccc(OC(F)(F)C(F)Cl)cc1 (centres unmarked) [drawing 43 / B] | – | 9 (100%) | 9 (100%) | 9 (100%) | – | 0 (No effect) | 0 (No effect) | – | – | – | –
19 | N=C(NN=Cc1ccc(OC(F)(F)C(F)Cl)cc1)NN=Cc1ccc(OC(F)(F)C(F)Cl)cc1 (centres unmarked) [drawing 44 / S] | 6 (66-75%) | 9 (100%) | 9 (100%) | 9 (100%) | R | 0 (No effect) | 0 (No effect) | – | – | R | R
20 | CC1(C)Oc2ccc(C=NNC(=N)NN=Cc3ccc4c(c3)OC(C)(C)O4)cc2O1 [drawing 45 / S] | 6 (66-75%) | – | 9 (100%) | 0 (No effect) | R | 0 (No effect) | – | – | – | – | –
21 | N=C(NN=Cc1ccc2c(c1)OC(F)(F)O2)NN=Cc1ccc2c(c1)OC(F)(F)O2 [drawing 46 / S] | 4 (46-55%) | 0 (No effect) | 9 (100%) | 0 (No effect) | R | 0 (No effect) | – | – | – | R | –
22 | N=C(NN=Cc1ccc2c(c1)OC(F)C(F)(F)O2)NN=Cc1ccc2c(c1)OC(F)C(F)(F)O2 (centres unmarked) [drawing 47 / B] | 0 (No effect) | – | 9 (100%) | 0 (No effect) | R | 0 (No effect) | – | – | – | R | –
23 | N=C(NN=Cc1ccc2c(c1)OC(F)C(F)(F)O2)NN=Cc1ccc2c(c1)OC(F)C(F)(F)O2 (centres unmarked) [drawing 48 / S] | – | 0 (No effect) | 9 (100%) | 0 (No effect) | R | – | – | – | – | – | –
24 | CC(C)OC(=O)N(N=Cc1ccc(OC(F)(F)C(F)Cl)cc1)C(=N)NN=Cc1ccc(OC(F)(F)C(F)Cl)cc1 (centres unmarked) [drawing 50 / drawing 51 / -i-C3 H7] | 0 (No effect) | 9 (100%) | 9 (100%) | 0 (No effect) | R | – | – | – | – | – | –
